The values below come from US8106204B2, “Substituted 2-amino-4-phenyldihydroquinolines, processes for their preparation, pharmaceutical compositions and methods for their use” (Sanofi-Aventis, priority 2006, dated 2012).

In this assay the target is T1, NHE-3 (Homo sapiens, UniProt P48764).
T1 sequence (P48764 26-834): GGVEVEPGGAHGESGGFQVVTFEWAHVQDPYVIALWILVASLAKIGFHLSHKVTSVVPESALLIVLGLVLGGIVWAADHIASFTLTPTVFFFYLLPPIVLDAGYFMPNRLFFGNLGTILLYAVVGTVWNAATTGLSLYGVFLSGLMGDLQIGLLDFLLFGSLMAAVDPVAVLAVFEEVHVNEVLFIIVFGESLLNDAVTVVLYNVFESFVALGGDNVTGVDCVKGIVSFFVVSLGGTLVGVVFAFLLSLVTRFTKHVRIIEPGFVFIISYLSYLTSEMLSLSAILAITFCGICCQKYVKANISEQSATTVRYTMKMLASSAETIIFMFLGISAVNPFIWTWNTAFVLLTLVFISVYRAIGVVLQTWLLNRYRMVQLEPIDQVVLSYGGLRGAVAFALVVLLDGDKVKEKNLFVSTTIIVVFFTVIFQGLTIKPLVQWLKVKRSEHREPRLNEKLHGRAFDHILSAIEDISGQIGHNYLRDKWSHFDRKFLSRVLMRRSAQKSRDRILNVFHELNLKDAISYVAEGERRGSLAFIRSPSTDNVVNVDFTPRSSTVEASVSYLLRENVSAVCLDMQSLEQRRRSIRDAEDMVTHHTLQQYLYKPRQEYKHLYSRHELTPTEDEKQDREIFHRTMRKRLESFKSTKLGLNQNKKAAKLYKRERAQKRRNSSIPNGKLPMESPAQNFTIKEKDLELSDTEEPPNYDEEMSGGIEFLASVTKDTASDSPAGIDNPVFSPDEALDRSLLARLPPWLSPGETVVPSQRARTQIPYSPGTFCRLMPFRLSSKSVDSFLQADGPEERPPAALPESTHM
The assay can be described thus: Determination of the NHE-inhibitory effect (recovery of intracellular pH after acidification, BCECF fluorescence). It counts as cell-based. The following applies: pH recovery recorded for three minutes with NHE-3; BCECF-loaded cells. The protocol:
Description of Assay: Determination of the NHE-Inhibitory Effect In this assay, the recovery of the intracellular pH (pHj) after an acidification which occurs even under bicarbonate-free conditions with functional NHE was determined. To this end, the pHj was determined using the pH-sensitive fluorescent dye BCECF (Calbiochem, the precursor BCECF-AM was employed). The cells were initially loaded with BCECF. The BCECF fluorescence was determined in a ratio fluorescence spectrometer (Photon Technology International, South Brunswick, N.J., USA) with excitation wavelengths of 505 and 440 nm and an emission wavelength of 535 nm and converted into the pHj using calibration plots. The cells had been incubated in NH4Cl buffer (pH 7.4) for the BCECF loading (NH4Cl buffer: 115 mM NaCl, 20 mM NH4Cl, 5 mM KCl, 1 mM CaCl2, 1 mM MgSO4, 20 mM Hepes, 5 mM glucose, 1 mg/ml BSA; a pH of 7.4 was adjusted with 1 M NaOH). The intracellular acidification was induced by adding 975 μl of an NH4Cl-free buffer (see below) to 25 μl aliquots of the cells incubated in NH4Cl buffer. The subsequent rate of pH recovery was recorded for two minutes with NHE1, five minutes with NHE2 and three minutes with NHE-3. To calculate the inhibitory power of the tested substances, the cells were initially investigated in buffers with which there was complete or absolutely no pH recovery. For complete pH recovery (100%), the cells were incubated in Na^+-containing buffer (133.8 mM NaCl, 4.7 mM KCl, 1.25 mM CaCl2, 1.25 mM MgCl2, 0.97 mM Na2HPO4, 0.23 mM NaH2PO4, 5 mM Hepes, 5 mM glucose, a pH of 7.0 was adjusted with 1 M NaOH). To determine the 0% value, the cells were incubated in an Na^+-free buffer (133.8 mM choline chloride, 4.7 mM KCl, 1.25 mM CaCl2, 1.25 mM MgCl2, 0.97 mM K2HPO4, 0.23 mM KH2PO4, 5 mM Hepes, 5 mM glucose, a pH of 7.0 was adjusted with 1 M NaOH). The substances to be tested were made up in the Na^+-containing buffer. The recovery of the intracellular pH at each tested concentration of a substance was expressed as a percentage of the maximum recovery. The IC50 of the respective substance for the individual NHE subtypes was calculated from the percentages of pH recovery using the Sigma Plot program.

Where a name gives a salt, the structure may show the parent alone.

As to `CCNC1=Nc2ccc(Cl)cc2C(c2ccc(N)cc2)C1` (stereo not shown) [Example 2, 4-(4-Aminophenyl)-6-chloro-2-ethylamino-3,4-dihydroquinoline hydrochloride], the IC50 (commonly the concentration that inhibits the measured activity by half) was determined as 10.9 µM. The compound `CCN(CC)C1=Nc2ccc(Cl)cc2C(c2ccc(N)cc2)C1` (stereo not shown) [Example 3, 4-(4-Aminophenyl)-6-chloro-2-diethylamino-3,4-dihydroquinoline hydrochloride] gave an IC50 of 9.19 µM. The result for `NC1=Nc2ccc(Cl)cc2C(c2ccc(N)cc2)C1` (stereo not shown) [Example 1, 2-Amino-4-(4-aminophenyl)-6-chloro-3,4-dihydroquinoline hydrochloride] reads 4.39 µM. With `CCN(CC)C1=Nc2ccc(Cl)cc2C(c2ccc(NC(=O)NCCN(C)C)cc2)C1` (stereo not shown) [Example 4, N-(2-Dimethylaminoethyl)-N′-4-[(6-chloro-3,4-dihydro-2-diethyl-aminoquinolin-4-yl)phenyl]urea hydrochloride] the figure was 13.8 µM.
